The source made the active and inactive calls. No cut-off for these calls is given here.
Assays:
[1] = Toxicity in Balb/c mouse assessed as pathological changes in blood aspartate aminotransferase level at 20 mg/kg, ip administered for every 2 days for 14 days; assay type: organism-based; settings: in vivo, 336 h, time 14 day
[2] = Clearance in Sprague-Dawley rat at 10 mg/kg, iv measured upto 8 hrs by LC/MS/MS analysis; assay type: ADME, organism-based; settings: in vivo
Tubulin = Tubulin (Sus scrofa, UniProt P02554+P02550); assay: Inhibition of porcine brain tubulin assessed as changes in the fluorescence intensity measured for 60 mins by cell free tubulin polymerization assay
[3] = Antitumor activity against paclitaxel-resistant human MCF7/TxR cells xenografted in Balb/c mouse assessed as tumor growth inhibition at 5 mg/kg, ip administered for every 2 days for 21 days; assay type: functional; settings: read-out: TGI
[4] = Tmax in Sprague-Dawley rat at 10 mg/kg, iv measured upto 8 hrs by LC/MS/MS analysis; assay type: ADME, organism-based; settings: in vivo
[5] = Toxicity in Balb/c mouse assessed as pathological changes in blood lactic dehydrogenase level at 20 mg/kg, ip administered for every 2 days for 14 days; assay type: organism-based; settings: in vivo, 336 h, time 14 day
[6] = Toxicity in Balb/c mouse assessed as pathological changes in blood creatine kinase level at 20 mg/kg, ip administered for every 2 days for 14 days; assay type: organism-based; settings: in vivo, 336 h, time 14 day
[7] = Cardiotoxicity in Sprague-Dawley rat assessed as PR interval at 10 to 60 mg/kg, iv measured upto 60 mins by electrocardiography; assay type: toxicity, organism-based; settings: in vivo, 1 h, dose 10-60 mg/kg
[8] = Antiproliferative activity against paclitaxel-resistant human MCF7/TxR cells measured after 72 hrs by MTT assay; assay type: functional, cell-based
[9] = Acute toxicity in ICR mouse; settings: in vivo
[10] = Antitumor activity against paclitaxel-resistant human MCF7/TxR cells xenografted in Balb/c mouse assessed as tumor growth inhibition at 10 mg/kg, ip administered for every 2 days for 21 days; assay type: functional; settings: 504 h, time 21 day, read-out: TGI
MCF7 [11] = assay: Induction of mitochondria transmembrane potential loss in human MCF7 cells measured after 12 hrs by JC1 dye based assay; assay type: functional; settings: dose 5-20 nM
A549 = assay: Antimigratory activity against human A549 cells assessed as inhibition of cell migration measured after 24 hrs by crystal violet staining based transwell migration assay; assay type: functional; settings: dose 1.25-5 nM
MCF7 [12] = assay: Induction of cell cycle arrest in human MCF7 cells assessed as arrest in G2/M phase by measuring accumulation of CDK7 at 5 to 25 nM incubated for 24 hrs by Western blotting analysis; assay type: functional, cell-based; settings: dose 5-25 nM
MCF7 [13] = assay: Induction of apoptosis in human MCF7 cells assessed as upregulation of p-Bim L protein expression at 5 to 20 nM in presence of roscovitine measured after 24 hrs by Western blot analysis; assay type: functional, cell-based; settings: dose 5-20 nM
MCF7 [14] = assay: Induction of cell cycle arrest in human MCF7 cells assessed as acetyl-alpha tubulin at 20 nM in presence of roscovitine measured after 24 hrs by Western blot analysis; assay type: functional, cell-based
MCF7 [15] = assay: Antiproliferative activity against human MCF7 cells assessed as survival rate at 20 nM in presence of roscovitine measured after 72 hrs by MTT assay relative to control; assay type: functional
MCF7 [16] = assay: Induction of apoptosis in human MCF7 cells assessed as upregulation of p-Bim EL protein expression at 5 to 20 nM in presence of roscovitine measured after 24 hrs by Western blot analysis; assay type: functional, cell-based; settings: dose 5-20 nM
[17] = Cmax in Sprague-Dawley rat at 10 mg/kg, iv measured upto 8 hrs by LC/MS/MS analysis; assay type: ADME, organism-based; set-up: dose 10 mg/kg, time < 8 hrs, route iv; settings: in vivo
[18] = Antitumor activity against paclitaxel-resistant human MCF7/TxR cells xenografted in Balb/c mouse assessed as tumor growth inhibition at 20 mg/kg, ip administered for every 2 days for 21 days; assay type: functional; settings: 504 h, time 21 day, read-out: TGI
HUVEC = assay: Inhibition of angiogenesis in HUVEC cells assessed as reduction in capillary tube formation after 6 hrs by phase contrast microscopy; assay type: functional, cell-based; settings: Homo sapiens, dose 1.25-5 nM
MCF7 [19] = assay: Induction of cell cycle arrest in human MCF7 cells assessed as upregulation of Bcl2 phosphorylation at […] at 5 to 20 nM in presence of roscovitine measured after 24 hrs by Western blot analysis; assay type: functional, cell-based; settings: dose 5-20 nM
[20] = Toxicity in Balb/c mouse xenografted with human MCF7 cells assessed as pathological changes in spleen at 5 to 20 mg/kg, ip administered for every 2 days for 21 days by hematoxylin and eosin staining based analysis; assay type: organism-based; settings: in vivo, 504 h, dose 5-20 mg/kg, time 21 day
[21] = Toxicity in Balb/c mouse assessed as pathological changes in blood creatinine level at 20 mg/kg, ip administered for every 2 days for 14 days; assay type: organism-based; settings: in vivo, 336 h, time 14 day
[22] = Cardiotoxicity in Sprague-Dawley rat assessed as QT correction value at 10 to 60 mg/kg, iv measured upto 60 mins by electrocardiography; assay type: toxicity, organism-based; settings: in vivo, 1 h, dose 10-60 mg/kg
[23] = Cardiotoxicity in Sprague-Dawley rat assessed as Qt interval at 10 to 60 mg/kg, iv measured upto 60 mins by electrocardiography; assay type: toxicity, organism-based; settings: in vivo, 1 h, dose 10-60 mg/kg
[24] = Cardiotoxicity in Sprague-Dawley rat assessed as RR interval at 10 to 60 mg/kg, iv measured upto 60 mins by electrocardiography; assay type: toxicity, organism-based; settings: in vivo, 1 h, dose 10-60 mg/kg
MCF7 [25] = assay: Induction of cell cycle arrest in human MCF7 cells assessed as arrest in G2/M phase by measuring accumulation of cyclin B1 at 5 to 25 nM incubated for 24 hrs by Western blotting analysis; assay type: functional, cell-based; settings: dose 5-25 nM
Tubulin (Homo sapiens) = Tubulin (Homo sapiens) (UniProt P68371+Q9H4B7+P0DPH7+P68366+Q13509+Q71U36+P04350+Q3ZCM7+P07437+P68363+Q9BQE3+Q6PEY2+Q13885+Q9BVA1+Q9BUF5); assay: Disruption of microtubule network in human MCF7 cells assessed as broken microtubule filaments at 20 nM measured after 6 hrs by immunofluorescence assay; assay type: cell-based
MCF7 [26] = assay: Induction of cell cycle arrest in human MCF7 cells assessed as accumulation of cells at G2/M phase at 20 nM measured after 24 hrs by flow cytometry relative to control; assay type: functional
[27] = AUC (0 to t) in Sprague-Dawley rat at 10 mg/kg, iv measured upto 8 hrs by LC/MS/MS analysis; assay type: ADME, organism-based; set-up: dose 10 mg/kg, time < 8 hrs, route iv; settings: in vivo
[28] = Toxicity in Balb/c mouse assessed as pathological changes in blood alanine aminotransferase level at 20 mg/kg, ip administered for every 2 days for 14 days; assay type: organism-based; settings: in vivo, 336 h, time 14 day
[29] = Half life in Sprague-Dawley rat at 10 mg/kg, iv measured upto 8 hrs by LC/MS/MS analysis; assay type: ADME, organism-based; settings: in vivo
HT-29 = assay: Antiproliferative activity against human HT-29 cells measured after 72 hrs by MTT assay; assay type: functional, cell-based; settings: HT-29, 72 h
MCF7 [30] = assay: Induction of cell cycle arrest in human MCF7 cells assessed as CI-PARP at 5 to 20 nM in presence of roscovitine measured after 24 hrs by Western blot analysis; assay type: functional, cell-based; settings: dose 5-20 nM
MCF7 [31] = assay: Induction of apoptosis in human MCF7 cells assessed as upregulation of cleaved Caspase 9 at 5 to 20 nM measured after 24 hrs by Western blot analysis; assay type: functional, cell-based; settings: dose 5-20 nM
[32] = Cardiotoxicity in Sprague-Dawley rat assessed as QTcf value at 10 to 60 mg/kg, iv measured upto 60 mins by electrocardiography; assay type: toxicity, organism-based; settings: in vivo, 1 h, dose 10-60 mg/kg

With `COc1c(Cl)cc([C@@H]2c3cc4c(cc3C[C@H]3C(=O)NC(=O)N23)OCCO4)cc1Cl` the Activity [1] was “Non-Toxic”, the CL [2] was 65 mL/min/kg and the IC50 (Tubulin) was 2520 nM. For the same compound, the inhibition in vivo at 5 mg/kg [3] was 38.9%, the Tmax [4] was 6.6 min and the Activity [5] was “Non-Toxic”. For the same compound, the Activity [6] was “Non-Toxic”, the Activity [7] was “Non-Toxic” and the IC50 [8] was 7.8 nM. The LD50 [9] was 211 mg/kg, the inhibition in vivo at 10 mg/kg [10] was 49.2% and the Activity (MCF7 [11]) was “Dose-Dependent Effect”. The Activity (A549) was “Dose-Dependent Effect”, the Activity (MCF7 [12]) was “Active” and the Activity (MCF7 [13]) was “inactive”. The Activity (MCF7 [14]) was “Active”, the Activity (MCF7 [15]) was 60.71% and the Activity (MCF7 [16]) was “inactive”. The Cmax [17] was 7291 ng/mL, the inhibition in vivo at 20 mg/kg [18] was 67.7% and the Activity (HUVEC) was “Dose-Dependent Effect”. The Activity (MCF7 [19]) was “inactive”, the Activity [20] was “Non-Toxic” and the Activity [21] was “Non-Toxic”. The Activity [22] was “Non-Toxic”, the Activity [23] was “Non-Toxic” and the Activity [24] was “Non-Toxic”. The Activity (MCF7 [25]) was “Active”, the Activity (Tubulin (Homo sapiens)) was “Active” and the Activity (MCF7 [26]) was 16%. For the same compound, the AUCt [27] was 6530 ng·h/mL, the Activity [28] was “Non-Toxic” and the t1/2 [29] was 95.4 min. The IC50 (HT-29) was 8.3 nM, the Activity (MCF7 [30]) was “inactive” and the Activity (MCF7 [31]) was “Active”. For the same compound, the Activity [32] was “Non-Toxic”.

Compound `COc1c(Br)cc([C@@H]2c3cc4c(cc3C[C@H]3C(=O)NC(=O)N23)OCCO4)cc1Br` has an IC50 (Tubulin) of 2310 nM, an IC50 [8] of 5.2 nM and an LD50 [9] of 86.2 mg/kg. The Activity (MCF7 [11]) was “Dose-Dependent Effect”, the Activity (A549) was “Dose-Dependent Effect” and the Activity (MCF7 [12]) was “Active”. For the same compound, the Activity (HUVEC) was “Dose-Dependent Effect”, the Activity [20] was “Non-Toxic” and the Activity (MCF7 [25]) was “Active”. For the same compound, the Activity (MCF7 [26]) was 16%, the IC50 (HT-29) was 4.4 nM and the Activity (MCF7 [31]) was “Active”.

From ChEMBL document CHEMBL5236615, “Discovery of Novel N-Heterocyclic-Fused Deoxypodophyllotoxin Analogues as Tubulin Polymerization Inhibitors Targeting the Colchicine-Binding Site for Cancer Treatment” (J Med Chem, 2022)
